In patent US10231954B2, “Neurodegenerative therapies” (LYTIX BIOPHARMA AS, priority 2014, dated 2019):
Read-outs that look alike come from different tables or passages of the source.

Tests used:
Type in all cases: biochemical
PKD1 = target: T1, PKD1 (Homo sapiens, UniProt Q15139); experiment: Kinase profiling PKD1; details: for remaining activity at 100 µM: read-out: residual kinase activity, PKD1
T1 sequence (Q15139 1-912): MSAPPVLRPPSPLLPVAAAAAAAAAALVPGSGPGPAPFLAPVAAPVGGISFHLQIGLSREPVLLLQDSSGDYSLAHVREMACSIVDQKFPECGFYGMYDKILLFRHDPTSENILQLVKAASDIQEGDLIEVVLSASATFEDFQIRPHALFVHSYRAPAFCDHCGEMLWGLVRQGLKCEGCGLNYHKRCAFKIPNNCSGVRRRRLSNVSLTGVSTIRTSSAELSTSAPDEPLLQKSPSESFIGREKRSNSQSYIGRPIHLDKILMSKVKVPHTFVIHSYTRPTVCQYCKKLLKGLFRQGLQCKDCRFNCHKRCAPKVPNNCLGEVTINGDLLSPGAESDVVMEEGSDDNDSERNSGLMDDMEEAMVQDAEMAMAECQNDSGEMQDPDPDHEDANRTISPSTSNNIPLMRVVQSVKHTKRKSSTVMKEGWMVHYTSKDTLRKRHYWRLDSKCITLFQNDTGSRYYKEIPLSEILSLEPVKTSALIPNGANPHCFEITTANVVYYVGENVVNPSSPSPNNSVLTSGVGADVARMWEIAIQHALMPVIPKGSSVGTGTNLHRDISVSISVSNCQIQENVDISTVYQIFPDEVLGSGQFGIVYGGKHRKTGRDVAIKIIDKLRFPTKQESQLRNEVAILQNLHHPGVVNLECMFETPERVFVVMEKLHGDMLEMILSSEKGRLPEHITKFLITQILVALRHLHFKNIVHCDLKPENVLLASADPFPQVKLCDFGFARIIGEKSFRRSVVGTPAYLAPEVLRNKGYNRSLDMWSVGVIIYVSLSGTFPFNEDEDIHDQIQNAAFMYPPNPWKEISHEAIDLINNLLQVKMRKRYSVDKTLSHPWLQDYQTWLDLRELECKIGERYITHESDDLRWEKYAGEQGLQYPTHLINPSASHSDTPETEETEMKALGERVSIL
Text: (§1) Any value less that 25 is considered to be highly significant inhibition.

CAMKKb = CAMKKb (Homo sapiens, UniProt Q96RR4); experiment: Kinase profiling CAMKKb; details: for remaining activity at 100 µM: read-out: residual kinase activity, CAMKKb
Sequence of CAMKKb (Q96RR4 whole entry, species assumed): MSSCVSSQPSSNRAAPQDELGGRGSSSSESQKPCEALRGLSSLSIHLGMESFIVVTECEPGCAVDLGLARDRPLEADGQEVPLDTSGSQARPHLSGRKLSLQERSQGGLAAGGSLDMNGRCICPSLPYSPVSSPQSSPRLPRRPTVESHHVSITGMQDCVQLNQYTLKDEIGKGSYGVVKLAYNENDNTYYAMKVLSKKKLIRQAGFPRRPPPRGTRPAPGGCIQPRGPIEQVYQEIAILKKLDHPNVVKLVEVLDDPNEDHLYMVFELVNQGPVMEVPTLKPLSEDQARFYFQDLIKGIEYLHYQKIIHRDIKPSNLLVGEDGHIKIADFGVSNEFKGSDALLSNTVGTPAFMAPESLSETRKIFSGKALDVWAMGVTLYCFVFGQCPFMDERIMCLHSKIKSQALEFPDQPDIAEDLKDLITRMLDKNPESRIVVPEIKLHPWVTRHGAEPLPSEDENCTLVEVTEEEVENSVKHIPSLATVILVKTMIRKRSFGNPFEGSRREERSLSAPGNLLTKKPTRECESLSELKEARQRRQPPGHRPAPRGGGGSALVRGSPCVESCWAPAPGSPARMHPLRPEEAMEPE
Text: as §1

CK2 = experiment: Kinase profiling CK2
Text: as §1

PAK4 = PAK4 (Homo sapiens, UniProt O96013); experiment: Kinase profiling PAK4; details: for remaining activity at 100 µM: read-out: residual kinase activity, PAK4
Sequence of PAK4 (O96013 whole entry, species assumed): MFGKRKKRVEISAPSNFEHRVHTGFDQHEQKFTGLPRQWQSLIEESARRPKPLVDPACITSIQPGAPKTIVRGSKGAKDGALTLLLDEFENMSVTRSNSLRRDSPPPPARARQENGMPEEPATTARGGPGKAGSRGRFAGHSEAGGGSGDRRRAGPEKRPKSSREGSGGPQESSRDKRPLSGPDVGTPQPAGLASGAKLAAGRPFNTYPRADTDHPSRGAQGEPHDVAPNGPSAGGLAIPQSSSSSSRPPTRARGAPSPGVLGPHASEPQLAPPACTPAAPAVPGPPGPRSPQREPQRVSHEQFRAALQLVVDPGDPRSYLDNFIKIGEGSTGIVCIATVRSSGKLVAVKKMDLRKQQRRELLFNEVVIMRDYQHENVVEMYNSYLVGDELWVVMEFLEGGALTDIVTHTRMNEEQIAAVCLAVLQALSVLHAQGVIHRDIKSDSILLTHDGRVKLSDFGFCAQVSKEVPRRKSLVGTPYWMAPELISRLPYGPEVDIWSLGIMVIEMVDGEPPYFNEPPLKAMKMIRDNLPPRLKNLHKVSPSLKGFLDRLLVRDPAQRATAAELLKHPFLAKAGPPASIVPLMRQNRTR
Text: as §1

EPH-A2 = EPH-A2 (Homo sapiens, UniProt P29317); experiment: Kinase profiling EPH-A2; details: for remaining activity at 100 µM: read-out: residual kinase activity, EPH-A2
Text: as §1

PLK1 = PLK1 (Homo sapiens, UniProt P53350); experiment: Kinase profiling PLK1; details: for remaining activity at 100 µM: read-out: residual kinase activity, PLK1
Text: as §1

MKK1 = MKK1 (Homo sapiens, UniProt Q02750); experiment: Kinase profiling MKK1; details: for remaining activity at 100 µM: read-out: residual kinase activity, MKK1
Sequence of MKK1 (Q02750 whole entry, species assumed): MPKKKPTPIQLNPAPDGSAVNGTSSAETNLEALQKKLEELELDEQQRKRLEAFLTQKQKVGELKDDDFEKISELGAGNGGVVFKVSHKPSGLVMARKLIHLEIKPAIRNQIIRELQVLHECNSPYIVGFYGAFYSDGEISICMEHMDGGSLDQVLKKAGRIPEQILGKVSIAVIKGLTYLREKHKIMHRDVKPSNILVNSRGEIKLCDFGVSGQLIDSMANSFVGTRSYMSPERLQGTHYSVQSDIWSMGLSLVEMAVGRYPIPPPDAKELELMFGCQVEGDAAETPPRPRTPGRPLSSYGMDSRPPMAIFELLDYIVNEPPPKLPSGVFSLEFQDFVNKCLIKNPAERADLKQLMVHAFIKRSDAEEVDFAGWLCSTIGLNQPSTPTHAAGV
Text: as §1

PRK2 = PRK2 (Homo sapiens, UniProt Q16513); experiment: Kinase profiling PRK2; details: for remaining activity at 100 µM: read-out: residual kinase activity, PRK2
Sequence of PRK2 (Q16513 whole entry, species assumed): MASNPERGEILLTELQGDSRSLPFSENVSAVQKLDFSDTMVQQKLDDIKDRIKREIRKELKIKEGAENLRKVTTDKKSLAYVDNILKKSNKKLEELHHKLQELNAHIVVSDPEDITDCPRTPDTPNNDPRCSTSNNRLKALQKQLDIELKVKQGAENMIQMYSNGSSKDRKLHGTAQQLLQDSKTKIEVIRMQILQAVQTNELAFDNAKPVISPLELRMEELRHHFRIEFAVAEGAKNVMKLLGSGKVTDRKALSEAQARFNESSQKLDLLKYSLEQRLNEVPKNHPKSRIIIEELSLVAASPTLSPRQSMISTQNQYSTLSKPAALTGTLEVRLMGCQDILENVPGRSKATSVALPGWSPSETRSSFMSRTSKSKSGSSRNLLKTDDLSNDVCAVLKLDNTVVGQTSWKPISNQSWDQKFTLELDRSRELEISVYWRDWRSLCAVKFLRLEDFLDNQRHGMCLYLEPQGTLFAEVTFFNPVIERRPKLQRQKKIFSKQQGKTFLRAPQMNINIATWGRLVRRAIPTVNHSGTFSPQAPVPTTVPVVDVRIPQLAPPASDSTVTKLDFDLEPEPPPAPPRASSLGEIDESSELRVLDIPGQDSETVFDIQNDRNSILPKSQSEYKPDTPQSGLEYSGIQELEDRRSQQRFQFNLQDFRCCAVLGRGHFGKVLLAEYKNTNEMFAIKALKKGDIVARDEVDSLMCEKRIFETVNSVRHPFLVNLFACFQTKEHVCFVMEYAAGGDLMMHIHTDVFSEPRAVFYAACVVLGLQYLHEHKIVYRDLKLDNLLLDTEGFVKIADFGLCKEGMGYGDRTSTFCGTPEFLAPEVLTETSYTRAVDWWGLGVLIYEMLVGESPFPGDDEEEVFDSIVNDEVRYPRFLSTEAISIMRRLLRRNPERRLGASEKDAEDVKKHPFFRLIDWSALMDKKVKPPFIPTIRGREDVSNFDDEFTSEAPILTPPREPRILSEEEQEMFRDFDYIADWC
Text: as §1

PKCγ = PKCγ (Homo sapiens, UniProt P05129); experiment: Kinase profiling PKCγ; details: for remaining activity at 100 µM: read-out: residual kinase activity, PKCγ
Text: as §1

p38b MAPK = p38b MAPK (Homo sapiens, UniProt Q15759); experiment: Kinase profiling p38b MAPK; details: for remaining activity at 100 µM: read-out: residual kinase activity, p38b MAPK
Text: as §1

BTK = BTK (Homo sapiens, UniProt Q06187); experiment: Kinase profiling BTK; details: for remaining activity at 100 µM: read-out: residual kinase activity, BTK
Sequence of BTK (Q06187 whole entry, species assumed): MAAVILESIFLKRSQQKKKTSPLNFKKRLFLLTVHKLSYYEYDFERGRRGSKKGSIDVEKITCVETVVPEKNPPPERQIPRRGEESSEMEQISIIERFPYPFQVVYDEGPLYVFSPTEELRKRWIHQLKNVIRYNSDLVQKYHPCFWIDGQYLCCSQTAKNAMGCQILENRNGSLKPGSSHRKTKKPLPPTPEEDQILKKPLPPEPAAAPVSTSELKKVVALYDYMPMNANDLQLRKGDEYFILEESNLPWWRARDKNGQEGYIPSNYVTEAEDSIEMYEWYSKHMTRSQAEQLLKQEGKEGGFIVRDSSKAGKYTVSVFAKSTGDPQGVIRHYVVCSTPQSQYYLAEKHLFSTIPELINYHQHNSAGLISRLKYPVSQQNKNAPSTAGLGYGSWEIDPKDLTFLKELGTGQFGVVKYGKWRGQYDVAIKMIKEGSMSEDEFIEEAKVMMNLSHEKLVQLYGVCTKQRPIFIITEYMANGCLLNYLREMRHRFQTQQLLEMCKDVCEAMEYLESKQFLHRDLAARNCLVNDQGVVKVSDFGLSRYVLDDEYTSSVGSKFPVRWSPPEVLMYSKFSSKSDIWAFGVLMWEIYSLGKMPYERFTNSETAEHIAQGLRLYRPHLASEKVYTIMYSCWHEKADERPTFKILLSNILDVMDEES
Text: as §1

MKK2 = MKK2 (Homo sapiens, UniProt P36507); experiment: Kinase profiling MKK2; details: for remaining activity at 100 µM: read-out: residual kinase activity, MKK2
Sequence of MKK2 (P36507 whole entry, species assumed): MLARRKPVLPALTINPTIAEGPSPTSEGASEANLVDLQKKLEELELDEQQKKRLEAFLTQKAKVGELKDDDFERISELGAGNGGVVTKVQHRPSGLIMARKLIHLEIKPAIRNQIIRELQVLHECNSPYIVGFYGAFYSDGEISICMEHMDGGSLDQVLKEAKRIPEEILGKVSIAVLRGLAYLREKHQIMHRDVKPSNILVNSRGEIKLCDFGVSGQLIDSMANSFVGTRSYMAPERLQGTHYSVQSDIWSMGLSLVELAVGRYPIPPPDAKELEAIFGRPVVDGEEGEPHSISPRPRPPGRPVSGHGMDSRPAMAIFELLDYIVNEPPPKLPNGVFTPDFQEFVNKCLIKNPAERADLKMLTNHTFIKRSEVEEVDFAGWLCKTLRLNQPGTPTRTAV
Text: as §1

SRPK1 = SRPK1 (Homo sapiens, UniProt Q96SB4); experiment: Kinase profiling SRPK1; details: for remaining activity at 100 µM: read-out: residual kinase activity, SRPK1
Sequence of SRPK1 (Q96SB4 whole entry, species assumed): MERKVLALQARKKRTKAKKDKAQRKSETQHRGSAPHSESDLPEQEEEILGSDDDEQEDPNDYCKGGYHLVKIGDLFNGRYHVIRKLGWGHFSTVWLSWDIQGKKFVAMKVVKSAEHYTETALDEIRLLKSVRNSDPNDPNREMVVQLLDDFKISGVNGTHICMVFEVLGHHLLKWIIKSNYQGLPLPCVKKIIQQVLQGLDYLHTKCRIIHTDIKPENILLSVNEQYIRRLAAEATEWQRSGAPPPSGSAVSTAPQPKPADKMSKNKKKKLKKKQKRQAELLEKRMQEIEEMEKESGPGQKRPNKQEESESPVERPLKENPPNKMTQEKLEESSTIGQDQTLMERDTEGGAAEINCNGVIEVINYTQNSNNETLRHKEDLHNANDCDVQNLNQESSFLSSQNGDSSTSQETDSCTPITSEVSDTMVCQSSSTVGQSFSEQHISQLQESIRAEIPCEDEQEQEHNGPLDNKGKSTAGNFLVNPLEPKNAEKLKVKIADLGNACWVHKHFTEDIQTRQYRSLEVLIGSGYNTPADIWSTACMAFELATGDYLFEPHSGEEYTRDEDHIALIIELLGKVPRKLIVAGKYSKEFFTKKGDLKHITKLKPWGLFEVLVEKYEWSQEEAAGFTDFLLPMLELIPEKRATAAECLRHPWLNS
Text: as §1

PKCa = PKCa (Homo sapiens, UniProt P17252); experiment: Kinase profiling PKCa; details: for remaining activity at 100 µM: read-out: residual kinase activity, PKCa
Text: as §1

TBK1 = target: T2, TBK1 (Homo sapiens, UniProt Q9UHD2); experiment: Kinase profiling TBK1; details: for remaining activity at 100 µM: read-out: residual kinase activity, TBK1
T2 sequence (Q9UHD2 1-729): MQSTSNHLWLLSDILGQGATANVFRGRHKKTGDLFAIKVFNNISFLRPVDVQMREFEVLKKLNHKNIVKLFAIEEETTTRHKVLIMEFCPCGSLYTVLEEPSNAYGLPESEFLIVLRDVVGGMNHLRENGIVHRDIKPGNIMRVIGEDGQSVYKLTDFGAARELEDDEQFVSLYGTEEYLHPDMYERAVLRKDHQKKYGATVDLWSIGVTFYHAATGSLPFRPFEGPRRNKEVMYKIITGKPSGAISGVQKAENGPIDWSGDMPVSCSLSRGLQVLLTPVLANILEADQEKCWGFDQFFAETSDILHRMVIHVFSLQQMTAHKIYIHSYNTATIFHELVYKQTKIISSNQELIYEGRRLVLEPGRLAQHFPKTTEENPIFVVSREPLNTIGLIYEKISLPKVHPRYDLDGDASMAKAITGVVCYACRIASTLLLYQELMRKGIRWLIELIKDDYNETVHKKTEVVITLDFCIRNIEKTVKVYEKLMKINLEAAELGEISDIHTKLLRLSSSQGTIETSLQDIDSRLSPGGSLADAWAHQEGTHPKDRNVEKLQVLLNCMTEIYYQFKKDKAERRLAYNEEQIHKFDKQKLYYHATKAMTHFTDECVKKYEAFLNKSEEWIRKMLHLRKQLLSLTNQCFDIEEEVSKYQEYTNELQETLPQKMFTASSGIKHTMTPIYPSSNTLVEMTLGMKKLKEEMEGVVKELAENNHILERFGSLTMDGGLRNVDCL
Text: as §1

p38g MAPK = target: T3, p38g MAPK (Homo sapiens, UniProt P53778); experiment: Kinase profiling p38g MAPK; details: for remaining activity at 100 µM: read-out: residual kinase activity, p38g MAPK
T3 sequence (P53778 1-367): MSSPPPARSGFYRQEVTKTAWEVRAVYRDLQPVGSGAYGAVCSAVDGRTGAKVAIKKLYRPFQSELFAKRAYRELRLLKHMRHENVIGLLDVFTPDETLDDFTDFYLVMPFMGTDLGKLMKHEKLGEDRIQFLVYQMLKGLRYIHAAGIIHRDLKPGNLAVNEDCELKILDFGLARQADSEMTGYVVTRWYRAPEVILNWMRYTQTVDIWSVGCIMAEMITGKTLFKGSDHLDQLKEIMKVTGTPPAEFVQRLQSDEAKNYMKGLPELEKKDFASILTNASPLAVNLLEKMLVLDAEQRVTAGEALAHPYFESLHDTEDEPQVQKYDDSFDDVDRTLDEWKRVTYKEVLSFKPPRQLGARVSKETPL
Text: as §1

RIPK2 = RIPK2 (Homo sapiens, UniProt O43353); experiment: Kinase profiling RIPK2; details: for remaining activity at 100 µM: read-out: residual kinase activity, RIPK2
Text: as §1

[1] = 100 micromolar inhibitor, 100 = no change
[2] = 100 micromolar inhibitor concentration, 100 is no change

SMILES: CC(=O)Nc1cccc(NC(=O)c2nc3ccc(O)cc3s2)c1 [Compound 03-07, N-(3-acetamidophenyl)-6-hydroxybenzo[d]thiazole-2-carboxamide]
- remaining activity at 100 µM (PKD1; [1]): 61%
- remaining activity at 100 µM (CAMKKb; [1]): 30%
- residual kinase activity, CK2 (CK2; [1]): 35
- remaining activity at 100 µM (PAK4; [1]): 92%
- remaining activity at 100 µM (EPH-A2; [1]): 88%
- remaining activity at 100 µM (PLK1; [1]): 93%
- remaining activity at 100 µM (MKK1; [1]): 85%
- remaining activity at 100 µM (PRK2; [1]): 74%
- remaining activity at 100 µM (PKCγ; [1]): 98%
- remaining activity at 100 µM (p38b MAPK; [1]): 96%
- remaining activity at 100 µM (BTK; [1]): 32%
- remaining activity at 100 µM (MKK2; [1]): 88%
- remaining activity at 100 µM (SRPK1; [1]): 27%
- remaining activity at 100 µM (PKCa; [1]): 81%
- remaining activity at 100 µM (TBK1; [1]): 92%
- remaining activity at 100 µM (p38g MAPK; [1]): 93%
- remaining activity at 100 µM (RIPK2; [1]): 18%

SMILES: O=C(Nc1nc2cc(O)ccc2s1)c1ccccn1 [Compound 03-13]
- residual kinase activity, PKD1 (PKD1; [2]): 76
- residual kinase activity, CAMKKb (CAMKKb; [2]): 69
- residual kinase activity, CK2 (CK2; [2]): 78
- residual kinase activity, PAK4 (PAK4; [2]): 115
- residual kinase activity, EPH-A2 (EPH-A2; [2]): 81
- residual kinase activity, PLK1 (PLK1; [2]): 96
- residual kinase activity, MKK1 (MKK1; [2]): 107
- residual kinase activity, PRK2 (PRK2; [2]): 97
- residual kinase activity, PKCγ (PKCγ; [2]): 141
- residual kinase activity, p38b MAPK (p38b MAPK; [2]): 91
- residual kinase activity, BTK (BTK; [2]): 90
- residual kinase activity, MKK2 (MKK2; [2]): 82
- residual kinase activity, SRPK1 (SRPK1; [2]): 57
- residual kinase activity, PKCa (PKCa; [2]): 112
- residual kinase activity, TBK1 (TBK1; [2]): 73
- residual kinase activity, p38g MAPK (p38g MAPK; [2]): 94
- residual kinase activity, RIPK2 (RIPK2; [2]): 27

SMILES: O=C(Nc1nc2ccc(O)cc2s1)c1ccccn1 [Compound 03-12]
- residual kinase activity, PKD1 (PKD1; [2]): 70
- residual kinase activity, CAMKKb (CAMKKb; [2]): 41
- residual kinase activity, CK2 (CK2; [2]): 57
- residual kinase activity, PAK4 (PAK4; [2]): 87
- residual kinase activity, EPH-A2 (EPH-A2; [2]): 85
- residual kinase activity, PLK1 (PLK1; [2]): 65
- residual kinase activity, MKK1 (MKK1; [2]): 80
- residual kinase activity, PRK2 (PRK2; [2]): 66
- residual kinase activity, PKCγ (PKCγ; [2]): 143
- residual kinase activity, p38b MAPK (p38b MAPK; [2]): 105
- residual kinase activity, BTK (BTK; [2]): 71
- residual kinase activity, MKK2 (MKK2; [2]): 82
- residual kinase activity, SRPK1 (SRPK1; [2]): 63
- residual kinase activity, PKCa (PKCa; [2]): 101
- residual kinase activity, TBK1 (TBK1; [2]): 68
- residual kinase activity, p38g MAPK (p38g MAPK; [2]): 89
- residual kinase activity, RIPK2 (RIPK2; [2]): 29

SMILES: O=C(Nc1nc2ccc(O)cc2s1)c1cccnc1 [Compound 08-44]
- residual kinase activity, PKD1 (PKD1; [2]): 54
- residual kinase activity, CAMKKb (CAMKKb; [2]): 59
- residual kinase activity, CK2 (CK2; [2]): 19
- residual kinase activity, PAK4 (PAK4; [2]): 64
- residual kinase activity, EPH-A2 (EPH-A2; [2]): 81
- residual kinase activity, PLK1 (PLK1; [2]): 63
- residual kinase activity, MKK1 (MKK1; [2]): 67
- residual kinase activity, PRK2 (PRK2; [2]): 46
- residual kinase activity, PKCγ (PKCγ; [2]): 73
- residual kinase activity, p38b MAPK (p38b MAPK; [2]): 89
- residual kinase activity, BTK (BTK; [2]): 54
- residual kinase activity, MKK2 (MKK2; [2]): 48
- residual kinase activity, SRPK1 (SRPK1; [2]): 16
- residual kinase activity, PKCa (PKCa; [2]): 67
- residual kinase activity, TBK1 (TBK1; [2]): 81
- residual kinase activity, p38g MAPK (p38g MAPK; [2]): 77
- residual kinase activity, RIPK2 (RIPK2; [2]): 21

SMILES: CC(=O)Nc1nc2cc(C(F)(F)F)ccc2s1 [Compound 03-73]
- remaining activity at 100 µM (PKD1; [2]): 83%
- remaining activity at 100 µM (CAMKKb; [2]): 65%
- residual kinase activity, CK2 (CK2; [2]): 105
- remaining activity at 100 µM (PAK4; [2]): 71%
- remaining activity at 100 µM (EPH-A2; [2]): 99%
- remaining activity at 100 µM (PLK1; [2]): 91%
- remaining activity at 100 µM (MKK1; [2]): 96%
- remaining activity at 100 µM (PRK2; [2]): 91%
- remaining activity at 100 µM (PKCγ; [2]): 106%
- remaining activity at 100 µM (p38b MAPK; [2]): 97%
- remaining activity at 100 µM (BTK; [2]): 93%
- remaining activity at 100 µM (MKK2; [2]): 98%
- remaining activity at 100 µM (SRPK1; [2]): 72%
- remaining activity at 100 µM (PKCa; [2]): 111%
- remaining activity at 100 µM (TBK1; [2]): 64%
- remaining activity at 100 µM (p38g MAPK; [2]): 93%
- remaining activity at 100 µM (RIPK2; [2]): 48%
